The subject of assay [1] is respiratory syncytial virus (RSV). As to the kind of experiment: Lung index and lung index repair rate in RSV-infected mice. The format is in vivo. The settings on record: positive control groups. As for the experimental part:
(§1) Male BALB/c mice, aged 2 weeks and weighing 10–12 g, were chosen for this study. They were acclimatized for 2 days and then randomly assigned to one of five groups: blank (C), model (M), positive control ribavirin (Y1), positive control lianhua qingwen granules (Y2), and Scutellaria baicalensis Georgi administration (H1-H12). Each group consisted of six mice, and their weights were recorded. The mice were pre-administered for 2 days, and on the third day, RSV virus (TCID50 = 10^−6) was inoculated through intranasal infection at a volume of 35 μL per mouse. The blank group was inoculated with normal saline of the same volume. After the inoculation of the RSV virus, the blank and model groups were given distilled water by gavage, while the drug-administered groups were given an aqueous extract of Scutellaria baicalensis Georgi (10 µL/g) once a day for 3 days. The mice were observed daily for their mental status, hair color, diet, and body weight. […] Lung tissues were weighed, the lung index was calculated, and the lung tissues were stored in the refrigerator at −80 °C for freezing.
Based on the recorded body weight and lung tissue weight of mice in the blank, model, positive control, and administration groups, the lung index and lung index repair rate were calculated for each group. […]

For assay [2] the test system is unchanged. In words: Lung tissue viral load (RSV-F real-time PCR) and inhibition rate in RSV-infected mice. The format is in vivo. Particulars: positive control groups. The procedure:
as §1, with “volume.” for “volume. After the inoculation of the RSV virus, the blank and model groups were given distilled water by gavage, while the drug-administered groups were given an aqueous extract of Scutellaria baicalensis Georgi (10 µL/g) once a day for 3 days. The mice were observed daily for their mental status, hair color, diet, and body weight.”
The F protein is a RSV-specific protein, so it can be used as a PCR gene indicator to indicate the viral load of lung tissue. […] After quantification, the RNA was reverse transcribed into cDNA, and the SYBR Green Master Mix reagent was used as the reaction system. […] The viral load inhibition rate was calculated using the 2^−ΔΔCt formula, and a graph depicting the change in lung tissue viral load over time was plotted, with time as the abscissa and lung tissue viral load as the ordinate. […]

Structures are written as SMILES.

Consider `NC(=O)c1ncn([C@@H]2O[C@H](CO)[C@@H](O)[C@H]2O)n1` [Y1, ribavirin], for which the “Repair Rate (lung index)” value in assay [1] was 58.33%. Moreover, the “Lung Index” value in assay [1] (mean ± SD, n = 6) is 0.85 ± 0.08 %. The “Inhibitory Rates (viral load)” value in assay [2] came to 61.26%. Also, the “Viral Load” value in assay [2] (mean ± SD, n = 6) is given as 2.27 ± 0.37 ×10^5 Copies/Ml.
